What was measured:
[1] = tested on: gilts; experiment: Extra vitamin A fed to gilts prior to estrus initiation; assay type: in vivo; details: extra vitamin A in addition to the diet, no lactic acid
From the text: Therefore, the inventors speculated that the lactic acid may be beneficial to the puberty onset and estrus of the gilts.

[2] = tested on: sheep; details: 50000 IU per day, continuously fed by 50 days; cited from earlier work
[3] = tested on: cows with reproductive disorders; details: vitamin A 50000 IU per day, alone or with carotene 200 mg per day; cited from earlier work

Substance: vitamin A
- delayed estrus initiation or estrus disorder [1]: improve the delayed estrus initiation or estrus disorder in gilts to some extent
- estrus rate [2]: no significantly affected
- lambing rate [2]: significantly increased
- conception rate [3]: significantly increased
- estrogen level [3]: significantly increased
- estrus ate [3]: not significantly affected
- follicle size [3]: not significantly affected
